Source: US10610507B2, “Methods for the treatment of sialorrhea” (NeuRX Pharmaceuticals LLC, priority 2012, dated 2020)

How the values were obtained:
in vitro = details: human, liver microsomes
[1] = cited from earlier work
[2] = Human liver microsome incubation study (metabolic stability)
[3] = human liver microsome incubation

half-life (in vitro) [min]	microsomal CLint (in vitro) [µL/min/mg]	SMILES	absolute bioavailability ([1]; administered orally)	oral bioavailability ([1]; after oral administration, pre-systemic metabolism)	inter individual variation in maximal oxybutynin plasma concentration (Cmax) ([1]; after oral administration) [fold]	inter individual variation in oxybutynin AUC ([1]; after oral administration) [fold]	increase of oxybutynin plasma levels ([1]; co-administered with ketoconazole vs without ketoconazole)	stability to metabolism by human liver microsomes relative to oxybutynin ([2]; compared with oxybutynin) [times]	Clint [2, 3] [ml/min/mg protein]	Half Life [2, 3]
5.2	267	CCN(CC)CC#CCOC(=O)C(O)(c1ccccc1)C1CCCCC1 (racemic) [Oxybutynin]	about 6%	approximately 6.2%	8	13	3-4 fold	–	–	–
–	–	CCNCC#CCOC(=O)C(O)(c1ccccc1)C1CCCCC1 (stereo not shown) [N-desethyloxybutynin, 4-(ethylamino) but-2-ynyl2-cyclohexyl-2-hydroxy-2-phenylacetate]	–	–	–	–	–	10	0.0218	>60 (63.6) mins
